The values below come from US6855713B2, “Benzimidazole derivatives, a process for their manufacture and use as a medicine” (Boehringer Ingelheim Pharma KG, priority 2001, dated 2005).

Where a name gives a salt, the structure may show the parent alone.

The target in the experiment is T1, rh beta trypsin (Homo sapiens, UniProt P20231).
T1 construct: purchased Promega
T1 sequence (P20231 31-275): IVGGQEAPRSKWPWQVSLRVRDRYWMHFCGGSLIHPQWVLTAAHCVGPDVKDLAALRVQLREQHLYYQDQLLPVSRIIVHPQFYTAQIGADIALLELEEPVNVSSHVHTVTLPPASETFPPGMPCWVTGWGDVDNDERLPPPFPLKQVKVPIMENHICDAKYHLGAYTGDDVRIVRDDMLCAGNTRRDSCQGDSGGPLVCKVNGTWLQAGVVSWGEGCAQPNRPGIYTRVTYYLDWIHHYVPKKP
Nature of the experiment: Trypsin (tryptase) inhibition, cleavage of N-p-Gly-Pro-Lys-para-nitroaniline measured at 405 nm. In kind it is biochemical. The conditions noted are these: in vitro; tris-HCl buffer pH 7.4 with calcium and heparin; substrate 0.6 mM; 5 minutes, 37° C.; read-out: Trypsin-inhibiting property. How it is done:
The compounds of the invention are notable for their effective trypsin-inhibiting property. The said capacity to inhibit trypsin activity was determined in accordance with the following trial descriptions.
The determinations are carried out in tris-HCl buffer (100 mM), that also contained calcium (5 mM) and heparin ([…]), at a pH of 7.4. As the standard, rh beta trypsin is used, this is commercially obtainable, for example, from Promega. A suitable substrate is N-p-Gly-Pro-Lys-para-nitroaniline in a concentration of 0.6 mM. The substrate is digested with trypsin, whereby p-nitro-aniline is obtained that can be measured at 405 nm. Normally, an incubation period of 5 minutes and an incubation temperature of 37° C. is chosen. For the enzyme activity, 0.91 U/ml are used. The determination is carriedout in an auto-analyser (Cobas Bio) from the firm Hoffmann LaRoche. The potential inhibitor substances are used in the screening procedure in concentrations of 10 μM, and the inhibition of the trypsin is given in percentages. At an inhibition in excess of 70%, the IC50 is determined (the concentration at which 50% of the enzyme activity is inhibited). After a 5-minute pre-incubation of the potential inhibiting substance, the substrate is added for the start of the reaction, whereby the production of p-nitro-aniline is taken, after 5 minutes, after testing the linearity, as a measure of the enzyme activity.
In the case of `Cn1c(CCc2ccc(C(=N)N)cc2)nc2cc(C(=O)N3CCN(C/C=C/c4ccccc4)CC3)ccc21` [Example 1, [2-(4-amidinophenyl)-ethyl]-1-methyl-benzimidazole-5-yl-carboxylic acid-[4-(3-phenyl-allyl)-piperazinyl]-amide-dihydrochloride], the IC50 is 1 to 20 nM. Consider `Cn1c(CCc2ccc(CN)cc2)nc2cc(C(=O)N3CCC(NC(=O)c4ccccc4)CC3)ccc21` [Example 15, 2-[2-(4-Aminomethylphenyl)-ethyl]-1-methyl-benzimidazole-5-yl-carboxylic acid-(4-benzamido-piperidinyl)-amide], for which the IC50 lay within 1 to 20 nM. Take `CCOCCCn1c(CCc2ccc(C(=N)N)cc2)nc2cc(C(=O)N3CCC(NC(=O)Nc4ccccc4)CC3)ccc21` [Example 20, 2-[2-(4-Amidinophenyl)-ethyl]-1-(3-ethoxy-propyl)-benzimidazol-5-yl-carbonsäure-[4-(3-phenyl-ureido)-piperidinyl]-amid-dihydrochlorid]: the IC50 fell in the range of 1 to 20 nM. With `Cc1cccc(NC(=O)NC2CCN(C(=O)c3ccc4c(c3)nc(CCc3ccc(C(=N)N)cc3)n4C)CC2)c1` [Example 25, 4-(2-{1-Methyl-5-[4-(3-m-tolyl-ureido)-piperidine-1-carbonyl]-1H-benzimidazole-2-yl}-ethyl)-benzamidine], the IC50 lay within 1 to 20 nM.

With `Cn1c(CCc2ccc(C(=N)N)cc2)nc2cc(C(=O)N3CCC(NC(=O)Nc4cccc(F)c4)CC3)ccc21` [Example 26, 4-[2-(5-{4-[3-(3-Fluoro-phenyl)-ureido]-piperidine-1-carbonyl}-1-methyl-1H-benzimidazole-2-yl)-ethyl]-benzamidine], the IC50 fell in the range of 1 to 20 nM. Take `Cn1c(CCc2ccc(C(=N)N)cc2)nc2cc(C(=O)N3CCC(NC(=O)Nc4ccccc4F)CC3)ccc21` [Example 27, 4-[2-(5-{4-[3-(2-Fluoro-phenyl)-ureido]-piperidine-1-carbonyl}-1-methyl-1H-benzimidazole-2-yl)-ethyl]-benzamidine]: the IC50 was in the range of 0.1 to 1 nM. With `COc1cccc(NC(=O)NC2CCN(C(=O)c3ccc4c(c3)nc(CCc3ccc(C(=N)N)cc3)n4C)CC2)c1` [Example 28, 4-[2-(5-{4-[3-(3-Methoxy-phenyl)-ureido]-piperidine-1-carbonyl}-1-methyl-1H-benzimidazole-2-yl)-ethyl]-benzamidine], the IC50 fell in the range of 0.1 to 1 nM. On to `Cn1c(CCc2ccc(C(=N)N)cc2)nc2cc(C(=O)N3CCC(NC(=O)Nc4ccccc4Cl)CC3)ccc21` [Example 29, 4-[2-(5-{4-[3-(2-Chloro-phenyl)-ureido]-piperidine-1-carbonyl}-1-methyl-1H-benzimidazole-2-yl)-ethyl]-benzamidine], for which the IC50 was in the range of 0.1 to 1 nM. Consider `COc1ccccc1NC(=O)NC1CCN(C(=O)c2ccc3c(c2)nc(CCc2ccc(C(=N)N)cc2)n3C)CC1` [Example 30, 4-[2-(5-{4-[3-(2-Methoxy-phenyl)-ureido]-piperidine-1-carbonyl}-1-methyl-1H-benzimidazole-2-yl)-ethyl]-benzamidine], for which the IC50 is 1 to 20 nM.

As to `Cn1c(CCc2ccc(C(=N)N)cc2)nc2cc(C(=O)N3CCC(NC(=O)Nc4ccc(Cl)cc4)CC3)ccc21` [Example 31, 4-[2-(5-{4-[3-(4-Chloro-phenyl)-ureido]-piperidine-1-carbonyl}-1-methyl-1H-benzimidazole-2-yl)-ethyl]-benzamidine], the IC50 lay in the range of 1 to 20 nM. As to `Cn1c(CCc2ccc(C(=N)N)cc2)nc2cc(C(=O)N3CCC(NC(=O)Nc4cccc(C(F)(F)F)c4)CC3)ccc21` [Example 32, 4-[2-(1-Methyl-5-{4-[3-(3-trifluoromethyl-phenyl)-ureido]-piperidine-1-carbonyl}-1H-benzimidazole-2-yl)-ethyl]-benzamidine], the IC50 is 1 to 20 nM.

Consider `Cn1c(CCc2ccc(C(=N)N)cc2)nc2cc(C(=O)N3CCC(NC(=O)Nc4ccc(F)cc4F)CC3)ccc21` [Example 33, 4-[2-(5-{4-[3-(2,4-Difluoro-phenyl)-ureido]-piperidine-1-carbonyl}-1-methyl-1H-benzimidazole-2-yl)-ethyl]-benzamidine], for which the IC50 was in the range of 1 to 20 nM. `Cn1c(CCc2ccc(C(=N)N)cc2)nc2cc(C(=O)N3CCC(NC(=O)Nc4cccc5ccccc45)CC3)ccc21` [Example 34, 4-(2-{1-Methyl-5-[4-(3-naphthalen-1-yl-ureido)-piperidine-1-carbonyl]-1H-benzimidazole-2-yl}-ethyl)-benzamidine]: the IC50 lay within 1 to 20 nM. In the case of `Cn1c(CCc2ccc(C(=N)N)cc2)nc2cc(C(=O)N3CCC(NC(=O)Nc4ccc(Cl)cc4Cl)CC3)ccc21` [Example 35, 4-[2-(5-{4-[3-(2,4-Dichloro-phenyl)-ureido]-piperidine-1-carbonyl}-1-methyl-1H-benzimidazole-2-yl)-ethyl]-benzamidine], the IC50 was 1 to 20 nM. In the case of `Cn1c(CCc2ccc(C(=N)N)cc2)nc2cc(C(=O)N3CCC(NC(=O)Nc4ccc5ccccc5c4)CC3)ccc21` [Example 36, 4-(2-{1-Methyl-5-[4-(3-naphthalen-2-yl-ureido)-piperidine-1-carbonyl]-1H-benzimidazole-2-yl}-ethyl)-benzamidine], the IC50 lay within 1 to 20 nM. Turning to `Cn1c(CCc2ccc(C(=N)N)cc2)nc2cc(C(=O)N3CCC(NC(=O)Nc4ccccc4Br)CC3)ccc21` [Example 37, 4-[2-(5-{4-[3-(2-Bromo-phenyl)-ureido]-piperidine-1-carbonyl}-1-methyl-1H-benzimidazole-2-yl)-ethyl]-benzamidine], the IC50 is 0.1 to 1 nM. The result for `Cn1c(CCc2ccc(C(=N)N)cc2)nc2cc(C(=O)N3CCC(NC(=O)Nc4c(F)cccc4F)CC3)ccc21` [Example 38, 4-[2-(5-{4-[3-(2,6-Difluoro-phenyl)-ureido]-piperidine-1-carbonyl}-1-methyl-1H-benzimidazole-2-yl)-ethyl] -benzamidine] reads 1 to 20 nM; that for `Cn1c(CCc2ccc(C(=N)N)cc2)nc2cc(C(=O)N3CCC(NC(=O)Nc4ccc(Br)cc4)CC3)ccc21` [Example 39, 4-[2-(5-{4-[3-(4-Bromo-phenyl)-ureido]-piperidine-1-carbonyl}-1-methyl-1H-benzimidazole-2-yl)-ethyl] -benzamidine], 1 to 20 nM; that for `Cn1c(CCc2ccc(C(=N)N)cc2)nc2cc(C(=O)N3CCC(NC(=O)NC4CCCCC4)CC3)ccc21` [Example 40, 4-(2-{5-[4-(3-Cyclohexyl-ureido)-piperidine-1-carbonyl]-1-methyl-1H-benzimidazole-2-yl}-ethyl)-benzamidine], 1 to 20 nM.

Turning to `Cn1c(CCc2ccc(C(=N)N)cc2)nc2cc(C(=O)N3CCC(NC(=O)Nc4ccc(C(F)(F)F)cc4)CC3)ccc21` [Example 41, 4-[2-(1-Methyl-5-{4-[3-(4-trifluoromethyl-phenyl)-ureido]-piperidine-1-carbonyl}-1H-benzimidazole-2-yl)-ethyl]-benzamidine], the IC50 lay within 1 to 20 nM. Consider `Cn1c(CCc2ccc(C(=N)N)cc2)nc2cc(C(=O)N3CCC(NC(=O)Nc4ccc(F)cc4)CC3)ccc21` [Example 42, 4-[2-(5-{4-[3-(4-Fluoro-phenyl)-ureido]-piperidine-1-carbonyl}-1-methyl-1H-benzimidazole-2-yl)-ethyl]-benzamidine], for which the IC50 was 1 to 20 nM. `Cn1c(CCc2ccc(C(=N)N)cc2)nc2cc(C(=O)N3CCC(NC(=O)Nc4cccc(Br)c4)CC3)ccc21` [Example 43, 4-[2-(5-{4-[3-(3-Bromo-phenyl)-ureido]-piperidine-1-carbonyl}-1-methyl-1H-benzimidazole-2-yl)-ethyl]-benzamidine]: the IC50 is 0.1 to 1 nM. The result for `Cn1c(CCc2ccc(C(=N)N)cc2)nc2cc(C(=O)N3CCC(NC(=O)c4cccc(Cl)c4)CC3)ccc21` [Example 44, 2-[2-(4-Amidinophenyl)-ethyl]-1-methyl-benzimidazole-5-yl-carboxylic acid-[4-(3-chloro)-benzamidopiperidinyl)-amide] reads 0.1 to 1 nM; that for `Cn1c(CCc2ccc(C(=N)N)cc2)nc2cc(C(=O)N3CCC(NC(=O)c4cccc(Br)c4)CC3)ccc21` [Example 45, 2-[2-(4-Amidinophenyl)-ethyl]-1-methyl-benzimidazole-5-yl-carboxylic acid-[4-(3-bromo)-benzamidopiperidinyl)-amide], 0.1 to 1 nM; that for `Cn1c(CCc2ccc(C(=N)N)cc2)nc2cc(C(=O)N3CCC(NC(=O)c4ccccc4O)CC3)ccc21` [Example 46, 2-[2-(4-Amidinophenyl)-ethyl]-1-methyl-benzimidazole-5-yl-carboxylic acid-[4-(2-hydroxy)-benzamidopiperidinyl)-amide], 1 to 20 nM. As to `Cn1c(CCc2ccc(C(=N)N)cc2)nc2cc(C(=O)N3CCC(NC(=O)c4cccc(Cl)c4Cl)CC3)ccc21` [Example 49, 2-[2-(4-Amidinophenyl)-ethyl]-1-methyl-benzimidazole-5-yl-carboxylic acid-[4-(2,3-dichloro)-benzamidopiperidinyl)-amide], the IC50 lay in the range of 1 to 20 nM. For the compound `COc1ccccc1C(=O)NC1CCN(C(=O)c2ccc3c(c2)nc(CCc2ccc(C(=N)N)cc2)n3C)CC1` [Example 50, 2-[2-(4-Amidinophenyl)-ethyl]-1-methyl-benzimidazole-5-yl-carboxylic acid-[4-(2-methoxy)-benzamidopiperidinyl)-amide], the IC50 was 1 to 20 nM.
